Test results taken from patent US8399478B2 (Vertex Pharmaceuticals Incorporated, priority 2006, dated 2013).

The compounds below were run against T1, Plk1 (Homo sapiens, UniProt P53350) (assay: Plk1 inhibition assay (radioactive-phosphate incorporation)). Settings: Ki(app) from initial rate data.
T1 construct: in the presence of 15 nM Plk1 (A20-K338)
Type: biochemical
Protocol: The compounds of the present invention are evaluated as inhibitors of human PLK kinase using the following assays.
(§1) Compounds were screened for their ability to inhibit Plk1 using a radioactive-phosphate incorporation assay. Assays were carried out in a mixture of 25 mM HEPES (pH 7.5), 10 mM MgCl2, and 1 mM DTT. […] An assay stock buffer solution was prepared containing all of the reagents listed above, with the exception of ATP and the test compound of interest. […] The plate was pre-incubated for 10 minutes at 25° C. and the reaction initiated by addition of 8 μL [γ-33 P]ATP (final concentration 50 μM).
(§2) The reaction was stopped after 60 minutes by the addition of 100 μL 0.14M phosphoric acid. A multiscreen phosphocellulose filter 96-well plate (Millipore, Cat no. MAPHN0B50) was pretreated with 100 μL 0.2M phosphoric acid prior to the addition of 125 μL of the stopped assay mixture. The plate was washed with 4×200 μL 0.2M phosphoric acid.
After removing mean background values for all of the data points, Ki(app) data were calculated from non-linear regression analysis of the initial rate data using the Prism software package (GraphPad Prism version 3.0cx for Macintosh, GraphPad Software, San Diego, Calif., USA).
as §1, with “MgCl2, […],” for “MgCl2,”, “and 2” for “and 1”, “μL [γ-33P]ATP” for “μL [γ-33 P]ATP”, “concentration 100” for “concentration 50”
as §2, with “90” for “60”

T1 sequence (P53350 20-338): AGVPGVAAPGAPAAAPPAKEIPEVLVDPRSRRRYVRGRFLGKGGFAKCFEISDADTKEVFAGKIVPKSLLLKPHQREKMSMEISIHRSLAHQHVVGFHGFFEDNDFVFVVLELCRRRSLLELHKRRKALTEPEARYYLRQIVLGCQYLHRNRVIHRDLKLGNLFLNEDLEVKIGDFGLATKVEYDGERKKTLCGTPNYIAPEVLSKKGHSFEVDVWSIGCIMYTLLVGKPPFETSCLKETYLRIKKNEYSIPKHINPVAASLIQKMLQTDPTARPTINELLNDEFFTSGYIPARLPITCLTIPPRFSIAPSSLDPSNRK

| Ki [nM] | SMILES |
| --- | --- |
| < 100 | CC(Oc1cc(-c2cnn3ccccc23)sc1C(N)=O)c1ccccc1Cl (stereo not shown) [Compound I-2, 3-[1-(2-Chloro-phenyl)-ethoxy]-5-pyrazolo[1,5-a]pyridin-3-yl-thiophene-2-carboxamide] |
| < 100 | COc1cnc2[nH]cc(-c3cc(OC(C)c4ccccc4Cl)c(C(N)=O)s3)c2c1 (stereo not shown) [Compound I-3, 3-[1-(2-Chloro-phenyl)-ethoxy]-5-(5-methoxy-1H-pyrrolo[2,3-b]pyridin-3-yl)-thiophene-2-carboxyamide] |
| > 1000 | CC(Oc1cc(-c2nnc3ccc(N)nn23)sc1C(N)=O)c1ccccc1Cl (stereo not shown) [Compound I-4] |
| 100 to 1000 | CC(Oc1cc(-c2cnc3[nH]ccc3c2)sc1C(N)=O)c1ccccc1Cl (stereo not shown) [Compound I-5, 3-[1-(2-Chloro-phenyl)-ethoxy]-5-(1H-pyrrolo[2,3-b]pyridin-5-yl)-thiophene-2-carboxamide] |
| < 100 | C=Cc1cnc2[nH]cc(-c3cc(OC(C)c4ccccc4Cl)c(C(N)=O)s3)c2c1 (stereo not shown) [Compound I-6, 3-(1-(2-chlorophenyl)ethoxy)-5-(5-vinyl-1H-pyrrolo[2,3-b]pyridin-3-yl)thiophene-2-carboxamide] |
| < 100 | CNC(=O)c1ccc2ncc(-c3cc(OC(C)c4ccccc4Cl)c(C(N)=O)s3)n2c1 (stereo not shown) [Compound I-7, 3-(5-carbamoyl-4-(1-(2-chlorophenyl)ethoxy)thiophen-2-yl)-N-methylimidazo[1,2-a]pyridine-6-carboxamide] |
| < 100 | CC(Oc1cc(-c2cnc3ccc(F)cn23)sc1C(N)=O)c1ccccc1Cl (stereo not shown) [Compound I-8, 3-(1-(2-chlorophenyl)ethoxy)-5-(6-fluoroimidazo[1,2-a]pyridin-3-yl)thiophene-2-carboxamide] |
| < 100 | CC(Oc1cc(-c2cnc3cnccn23)sc1C(N)=O)c1ccccc1Cl (stereo not shown) [Compound I-9] |
| < 100 | CC(Oc1cc(-c2cnc3ccc(C(F)(F)F)cn23)sc1C(N)=O)c1ccccc1Cl (stereo not shown) [Compound I-10, 3-(1-(2-chlorophenyl)ethoxy)-5-(6-(trifluoromethyl)imidazo[1,2-a]pyridin-3-yl)thiophene-2-carboxamide] |
| < 100 | CNC(=O)c1ccn2c(-c3cc(OC(C)c4ccccc4Cl)c(C(N)=O)s3)cnc2c1 (stereo not shown) [Compound I-11, 3-(5-carbamoyl-4-(1-(2-chlorophenyl)ethoxy)thiophen-2-yl)-N-methylimidazo[1,2-a]pyridine-7-carboxamide] |
| < 100 | CC(Oc1cc(-c2cnc3cccnn23)sc1C(N)=O)c1ccccc1Cl (stereo not shown) [Compound I-12, 3-(1-(2-chlorophenyl)ethoxy)-5-(imidazo[1,2-b]pyridazin-3-yl)thiophene-2-carboxamide] |
| < 100 | CC(Oc1cc(-c2cnc3cc(C(F)(F)F)ccn23)sc1C(N)=O)c1ccccc1Cl (stereo not shown) [Compound I-13, 3-(1-(2-chlorophenyl)ethoxy)-5-(7-(trifluoromethyl)imidazo[1,2-a]pyridin-3-yl)thiophene-2-carboxamide] |
| < 100 | CCOC(=O)Nc1ccn2c(-c3cc(OC(C)c4ccccc4Cl)c(C(N)=O)s3)cnc2c1 (stereo not shown) [Compound I-14, Ethyl 3-(5-carbamoyl-4-(1-(2-chlorophenyl)ethoxy)thiophen-2-yl)imidazo[1,2-a]pyridin-7-ylcarbamate] |
| < 100 | CC(Oc1cc(-c2cnc3cc(N)ccn23)sc1C(N)=O)c1ccccc1Cl (stereo not shown) [Compound I-15, 5-(7-aminoimidazo[1,2-a]pyridin-3-yl)-3-(1-(2-chlorophenyl)ethoxy)thiophene-2-carboxamide] |
| > 1000 | CNC(=O)c1sc(-c2cnc3ccccn23)cc1OC(C)c1ccccc1Cl (stereo not shown) [Compound I-16, 3-(1-(2-chlorophenyl)ethoxy)-5-(imidazo[1,2-a]pyridin-3-yl)-N-methylthiophene-2-carboxamide] |
| < 100 | CCOC(=O)N(C)c1ccn2c(-c3cc(OC(C)c4ccccc4Cl)c(C(N)=O)s3)cnc2c1 (stereo not shown) [Compound I-17, Ethyl 3-(5-carbamoyl-4-(1-(2-chlorophenyl)ethoxy)thiophen-2-yl)imidazo[1,2-a]pyridin-7-yl(methyl)carbamate] |
| < 100 | COC(=O)N(C)c1ccn2c(-c3cc(OC(C)c4ccccc4Cl)c(C(N)=O)s3)cnc2c1 (stereo not shown) [Compound I-18, Methyl 3-(5-carbamoyl-4-(1-(2-chlorophenyl)ethoxy)thiophen-2-yl)imidazo[1,2-a]pyridin-7-yl(methyl)carbamate] |
| < 100 | COC(=O)Nc1ccn2c(-c3cc(O[C@@H](C)c4ccccc4Cl)c(C(N)=O)s3)cnc2c1 [Compound I-19, (S)-methyl 3-(5-carbamoyl-4-(1-(2-chlorophenyl)ethoxy)thiophen-2-yl)imidazo[1,2-a]pyridin-7-ylcarbamate] |
| < 100 | CCOC(=O)Nc1ccn2c(-c3cc(O[C@@H](C)c4ccccc4Cl)c(C(N)=O)s3)cnc2c1 [Compound I-20, (S)-ethyl 3-(5-carbamoyl-4-(1-(2-chlorophenyl)ethoxy)thiophen-2-yl)imidazo[1,2-a]pyridin-7-ylcarbamate] |
| < 100 | CC[C@H](Oc1cc(-c2cnc3cc(NC(=O)OC)ccn23)sc1C(N)=O)c1ccccc1Cl [Compound I-21, (S)-methyl 3-(5-carbamoyl-4-(1-(2-chlorophenyl)propoxy)thiophen-2-yl)imidazo[1,2-a]pyridin-7-ylcarbamate] |
| < 100 | CCOC(=O)Nc1ccn2c(-c3cc(O[C@@H](CC)c4ccccc4Cl)c(C(N)=O)s3)cnc2c1 [Compound I-22, (S)-ethyl 3-(5-carbamoyl-4-(1-(2-chlorophenyl)propoxy)thiophen-2-yl)imidazo[1,2-a]pyridin-7-ylcarbamate] |
| < 100 | CCOC(=O)Nc1ccn2c(-c3cc(OC(C)(C)c4ccccc4Cl)c(C(N)=O)s3)cnc2c1 [Compound I-25, Ethyl 3-(5-carbamoyl-4-(2-(2-chlorophenyl)propan-2-yloxy)thiophen-2-yl)imidazo[1,2-a]pyridin-7-ylcarbamate] |
